Test results as given in PMC7075946 (Frontiers in Immunology, 2020).
Entries after “also recorded” stand apart in the source; their conditions may differ.

How the values were obtained:
[1] = test system: A/Victoria/210/2009 (H3N2); assay: Splenocyte restimulation, influenza-specific T cell responses (flow cytometry, MSD); assay type: in vivo, BALB/c mice; conditions: for influenza-specific T cell response (cytokine production of restimulated splenocytes): 5 days post-secondary vaccination, A/Vic restimulation, vs A/Vic alone
[2] = test system: human PBMCs; assay: Human PBMC secreted cytokines (Luminex); assay type: cell-based; conditions: for pro-inflammatory and Th1/Th17 biasing cytokines, concentrations and frequencies: secreted and intracellular cytokine data
Method: Human blood was obtained from healthy adult donors through a University of Montana Institutional Review Board (IRB)-approved protocol. PBMCs were separated from whole blood via density gradient separation using Histopaque 1,077 (Sigma). For PBMC-based assays, cells were resuspended at the desired cell concentration in complete media (RPMI1640+10% FBS+antibiotics). Cells were treated with the indicated compound concentrations and stimulated for 6–24 h depending on the assay as indicated in the figure legends and assays outlined below.
For Luminex assays, supernatants were harvested from treated human PBMCs following 18–24 h of incubation. Supernatants were analyzed using Luminex multiplex panel for analytes IL-1β, IL-12p70, IL-23, IL-6, TNFα, IFNα, and IL-4 (R&D Systems) per the manufacturer's instructions. Multiplex analysis was performed using a Luminex 200 instrument (Luminex Corporation) and analyzed with StarStation2.3 software.
Figure 6 Lipidated imidazoquinolines elicit a Th1/Th17-inducing innate cytokine profile from human PBMCs. PBMCs from 6 healthy, adult blood donors were stimulated with indicated concentrations of TLR7/8 agonists with and without a TLR4 agonist. Secreted cytokines were measured after 24 h via Luminex assay. Supernanant concentrations of (A) IL-12p70, (B) IL-23, (C) IL-1β, and (D) IL-4 were determined. […] Note that for each cytokine measured, the y-axis scale used for the left and right plots is identical for ease of comparison.

[3] = molecular target: T1, human TLR7 (Homo sapiens, UniProt Q9NYK1); assay: cell-based
T1 sequence (Q9NYK1 27-1049): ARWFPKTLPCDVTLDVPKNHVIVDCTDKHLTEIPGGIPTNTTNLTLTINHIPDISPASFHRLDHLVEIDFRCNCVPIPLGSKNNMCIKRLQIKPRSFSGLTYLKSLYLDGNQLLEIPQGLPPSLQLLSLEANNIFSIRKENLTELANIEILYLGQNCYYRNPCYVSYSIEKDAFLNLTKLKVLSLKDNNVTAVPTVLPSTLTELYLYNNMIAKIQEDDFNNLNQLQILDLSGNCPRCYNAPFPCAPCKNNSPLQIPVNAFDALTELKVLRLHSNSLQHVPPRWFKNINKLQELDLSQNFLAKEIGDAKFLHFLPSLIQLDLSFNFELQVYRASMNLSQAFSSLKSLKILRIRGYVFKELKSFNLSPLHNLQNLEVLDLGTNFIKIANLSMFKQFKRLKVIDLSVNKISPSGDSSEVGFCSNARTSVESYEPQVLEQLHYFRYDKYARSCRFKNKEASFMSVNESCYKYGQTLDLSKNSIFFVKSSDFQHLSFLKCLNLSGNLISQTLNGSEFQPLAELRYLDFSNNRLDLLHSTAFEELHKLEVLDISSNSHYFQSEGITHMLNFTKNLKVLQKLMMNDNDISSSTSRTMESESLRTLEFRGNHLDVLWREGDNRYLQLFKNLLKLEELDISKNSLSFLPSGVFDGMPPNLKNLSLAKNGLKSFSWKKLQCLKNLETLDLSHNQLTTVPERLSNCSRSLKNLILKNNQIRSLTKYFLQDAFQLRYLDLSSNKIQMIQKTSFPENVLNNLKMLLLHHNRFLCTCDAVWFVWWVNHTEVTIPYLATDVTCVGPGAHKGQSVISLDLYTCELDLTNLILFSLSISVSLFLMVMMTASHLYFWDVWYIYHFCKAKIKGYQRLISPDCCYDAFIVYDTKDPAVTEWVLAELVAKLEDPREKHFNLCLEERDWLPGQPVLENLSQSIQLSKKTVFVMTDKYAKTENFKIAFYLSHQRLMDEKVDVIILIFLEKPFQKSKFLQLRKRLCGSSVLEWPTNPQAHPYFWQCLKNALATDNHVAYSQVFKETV

[4] = test system: A/Victoria/210/2009 (H3N2); assay: ELISA of influenza-specific serum antibody titers in mice given adjuvanted A/Vic vaccine

CCCCc1nc2c(N)nc3ccccc3c2n1CCO [UM-3001]
influenza-specific T cell response (cytokine production of restimulated splenocytes) [1]: did not exhibit any significantly increased cytokine production | IFNα secretion ([2]; 24 h): not | IL-12p70 production ([2]; with CRX-601 added at a 1:10 ratio, 24 h): boosted IL-12p70 production | EC50 [3]: 1.12 µM | average fold change of IgG2a vs IgG1 titers over A/Vic alone ([4]; 14 days post-primary (14dp1)): approximately equal increase in both IgG2a and IgG1 titers

CCCCCCCCCCCCCCCC(=O)OC[C@H](COCCOCCOCCOP(=O)(O)OCCn1c(CCCC)nc2c(N)nc3ccccc3c21)OC(=O)CCCCCCCCCCCCCCC [UM-3003]
influenza-specific T cell response (cytokine production of restimulated splenocytes) [1]: primarily a Th1 influenza-specific response | IL-17 response compared to A/Vic antigen alone ([1]; challenge study, 10 μg/mouse alone, 5dp2): no longer elicited a significantly higher IL-17 response | IFNα secretion ([2]; 24 h): secreted; also recorded: most potent inducer of IFNα | IL-1β production ([2]; compound alone, 24 h): low concentrations | IL-12p70 production ([2]; compound alone, 24 h): low levels | IL-23 production ([2]; compound alone, 24 h): low concentrations | pro-inflammatory and Th1/Th17 biasing cytokines, concentrations and frequencies [2]: low concentrations and low frequencies | EC50 [3]: 34.7 µM | average fold change of IgG2a vs IgG1 titers over A/Vic alone ([4]; mouse, in vivo): IgG2a titers were increased more than IgG1 titers

CCCCCCCCCCCCCCCC(=O)OC[C@H](COCCOCCOCCOCCOCCOCCOP(=O)(O)OCCn1c(CCCC)nc2c(N)nc3ccccc3c21)OC(=O)CCCCCCCCCCCCCCC [UM-3004]
influenza-specific T cell response (cytokine production of restimulated splenocytes) [1]: primarily a Th1 influenza-specific response | IFNα secretion ([2]; 24 h): secreted | EC50 [3]: 60.5 µM | average fold change of IgG2a vs IgG1 titers over A/Vic alone ([4]; 14 days post-primary (14dp1)): IgG2a titers were increased more than IgG1 titers

CCCCCCCC/C=C\CCCCCCCC(=O)OC[C@H](COP(=O)(O)OCCc1ccc2c(c1)nc(N)c1nc(CCCC)n(CCO)c12)OC(=O)CCCCCCC/C=C\CCCCCCCC [UM-3005]
influenza-specific T cell response (cytokine production of restimulated splenocytes) [1]: primarily a Th1 influenza-specific response | frequencies of CD8 IFNγ+ cells ([1]; high dose 10 μg/mouse, with or without a TLR4 agonist, 5dp2): significantly increased | IFNα secretion ([2]; 24 h): secreted | pro-inflammatory and Th1/Th17 biasing cytokines, concentrations and frequencies [2]: highest concentrations and frequencies | EC50 [3]: 499 µM | average fold change of IgG2a vs IgG1 titers over A/Vic alone ([4]; mouse, in vivo): IgG2a titers were increased more than IgG1 titers
